Here are results for four compounds from paper PMC10888562 (International Journal of Molecular Sciences, 2024).

Assay type in all cases: cell-based, human
For one assay, the system named is U87 glioblastoma. The assay can be described thus: MTT cell viability assay (GI50), U87. The settings on record: for SCI: GI50 (MCF10A)/GI50 (U87); for GI50: U87 glioblastoma, MTT. On the technique in general: Formazan colour is commonly taken as a measure of viable cells.
Another assay has as its system H460 lung. The assay can be described thus: MTT cell viability assay (GI50), H460. The settings on record: for SCI: GI50 (MCF10A)/GI50 (H460); for GI50: H460 lung, MTT.
The test system of another assay is BE2-C neuroblastoma. The assay is described as follows: MTT cell viability assay (GI50), BE2-C. The settings on record: for SCI: GI50 (MCF10A)/GI50 (BE2-C); for GI50: BE2-C neuroblastoma, MTT.
For assay [1], the system named is histone deacetylase (HDAC). The assay can be described thus: Fluorometric HDAC activity assay on extracts of treated HT29 cells. The conditions noted are these: HT29 colon cells treated 72 h at GI50 concentration; lower RFU = decline in HDAC activity; HT29 extract control 5154 ± 40. As for the experimental part:
All values are expressed as RFU.
To study the HDAC activity in HT29 treated cells, a Fluorometric HDAC Activity Assay Kit ab156064 (Abcam, Cambridge, MA, USA) was used and all sample preparations were made based on the manufacturer’s protocol. A total of 10^6 cells/mL of HT29 cells were seeded in DMEM with serum deprivation for 18 h to synchronise the cells. […] Cells were then washed with cold PBS and resuspended in lysis buffer (10 mM Tris HCl (pH 7.5), 10 mM NaCl, 15 mM MgCl2, 250 mM sucrose, 0.5% NP-40 and 0.1 mM EGTA) and lysed on ice for 20 min. Cells were centrifuged through 4 mL of sucrose cushion (30% sucrose, 10mM Tris HCl (pH 7.5), 10 mM NaCl and 3mM MgCl2) at 1300× g for 10 min at 4 °C. Supernatant was discarded and the pellet was washed and resuspended in extraction buffer (50 mM HEPES-KOH (pH 7.5), 420 mM NaCl, 0.5 mM EDTA 2Na, 0.1 mM EGTA and 10% glycerol) and then sonicated for 30 s. Nuclei were lysed for 30 min on ice and centrifuged at 20,000× g for 30 min. The supernatant was collected, and the samples were prepared for the fluorometric assay according to the manufacturer’s protocol (Histone Deacetylase (HDAC) Activity Assay Fluorometric Kit ab156064, Abcam). The changes in the relative fluorescence intensity (expressed as RFU) were recorded each minute over 60 min using the Glo-Max®-Multimode microplate reader (Promega Corporation, Alexandra, VIC, Australia) at an excitation/emission of 355/460 nm.

In another assay the test system is A2780 ovarian. The assay is described as follows: MTT cell viability assay (GI50), A2780. The conditions noted are these: for SCI: GI50 (MCF10A)/GI50 (A2780); for GI50: A2780 ovarian, MTT.
Assay [2] has as its system HT29 colon cells. The assay can be described thus: DCFDA cellular ROS production assay. The conditions noted are these: GI50 drug concentration (TBHP 20 μM). As for the experimental part:
All values are expressed as relative fluorescence units (RFU).
To evaluate the presence of ROS in treated cells, a DCFDA/H2DCFDA-cellular ROS Assay Kit (Abcam, Cambridge, MA, USA) was used, as previously described. A total of 25,000 cells/mL of HT29 cells in DMEM were seeded in 96-well plates. Cells were washed with 1X kit buffer, and then stained with 25 μM 2′,7′-dichlorofluorescein diacetate (DCFH-DA) and incubated for 45 min. DCFH-DA was then removed, and cells were then re-washed with 1X kit buffer, after which phenol red free media was added. Cells were then treated with a GI50 drug concentration for each complex. The plates were directly scanned to measure fluorescence (relative fluorescence units (RFU)) at the time points indicated the Glo-Max®-Multimode microplate reader (Promega Corporation, Alexandra, VIC, Australia) at an excitation/emission of 485/535 nm, which is directly correlated to the DCFH-DA that is deacetylated by cellular esterases and then oxidised by ROS to the fluorescent compound DCF. To generate the positive control (20 μM tert-butyl hydroperoxide (TBHP)), cells were washed with 1X kit buffer, and stained with DCFDA (25 μM) for 45 min; this was removed and TBHP was added in phenol red free media, and the resulting solution was scanned as described above.

Assay [3] deals with HT29 colon cells. The assay is described as follows: TMRE mitochondrial membrane potential (MtMP) assay. The settings on record: GI50 drug concentration (FCCP 20 μM). The method, then:
This was achieved by determining if the overproduction of ROS induced by these complexes impacts mitochondrial activity by altering MtMP. Briefly, there is evidence showing a strong correlation between increased levels of ROS and mitochondrial impairment. […] The MtMP changes recorded are measured as RFU. […] To investigate the MtMP changes in HT29 treated cells, a TMRE-MtMP Assay Kit (Abcam, Cambridge, MA, USA) was used, as previously described. In 96-well plates, 25,000 cells/mL of HT29 colon cells in DMEM were seeded. Cells were treated with a GI50 drug concentration for each complex. At 24, 48 or 72 h, cells were washed with PBS and stained with tetramethylrhodamine, ethyl ester (TMRE) (1 μM) and incubated for 30 min. TMRE was then removed, and cells were then re-washed with PBS (0.2% BSA), after which phenol red free media was added. The plates were directly scanned to measure fluorescence (expressed as RFU), using the Glo-Max®-Multimode microplate reader (Promega Corporation, Alexandra, VIC, Australia) at an excitation/emission of 549/575 nm. For the positive control, 20 μM carbonyl cyanide 4-(trifluoromethoxy) phenylhydrazone (FCCP)) was added to the cells and incubated for 10 min. The cells were washed with PBS (0.2% BSA) and stained with TMRE (1 μM) for 30 min; this was removed, and phenol red free media was added, and the final solution was scanned as mentioned above.

The subject of a further assay is Du145 prostate. The assay can be described thus: MTT cell viability assay (GI50), Du145. The settings on record: for fold more potent than carboplatin / fold more potent than cisplatin / fold more potent than oxaliplatin: GI50 ratio; for GI50: MTT; for SCI: GI50 (MCF10A)/GI50 (Du145).

Where “and” joins values, the source holds several entries; their conditions need not be identical. Identical values can stand only once.

A word on the GI50: it is the concentration giving 50% growth inhibition. A low value points to greater sensitivity of the cells.

As to `N.N.[Cl][Pt][Cl]` [Cisplatin, cis-diammineplatinum(II) dichloride], the SCI with U87 glioblastoma worked out at 1.37; in the assay with H460 lung, 5.78; in the assay with BE2-C neuroblastoma, 2.74; with A2780 ovarian it was 5.20. Moreover, in assay [1], the “HDAC Inhibition at 72 h” value is 3698 ± 59 RFU. Further, the “ROS Production” value in the assay on HT29 colon cells [2] (24 h, control 60 ± 3) is on record as 265 ± 19 RFU; in the assay on HT29 colon cells [2] (48 h, control 63 ± 4) it was 299 ± 22 RFU; in the assay with HT29 colon cells [2] (72 h, control 85 ± 6), 364 ± 18 RFU. Further, the “MtMP Changes” value is given as 232 ± 4 RFU in the assay with HT29 colon cells [3] (24 h, control 542 ± 4); 230 ± 4 RFU with HT29 colon cells [3] (48 h, control 507 ± 11); 192 ± 7 RFU with HT29 colon cells [3] (72 h, control 449 ± 10).
On to “[Pt^IV(5,6-Me2phen)(SS-DACH)(5B3A)(OH)]^2+ [56-5B3A]”, for which the SCI in the assay with U87 glioblastoma stood at 0.04; in the assay with H460 lung, 0.42; in the assay with BE2-C neuroblastoma, 0.02; in the assay on Du145 prostate it was 2.75; with A2780 ovarian it was 0.18. Moreover, the GI50 in the assay with U87 glioblastoma was found to be 88 ± 7 nM; in the assay on H460 lung, 7.8 ± 2.2 nM; in the assay on BE2-C neuroblastoma it was 150 ± 24 nM; in the assay with Du145 prostate (Du145 prostate) it was 1.2 ± 0.6 nM; with A2780 ovarian, 18 ± 6.1 nM. The “fold more potent than 56MESS” value with Du145 prostate (Du145 prostate) is on record as 0.3 fold. The “fold more potent than carboplatin” value in the assay on Du145 prostate (Du145 prostate) was ≥ 12,500 fold. In addition, the “fold more potent than cisplatin” value in the assay with Du145 prostate (Du145 prostate) was 1000 fold. In the assay with Du145 prostate (Du145 prostate), the “fold more potent than oxaliplatin” value is reported as “at least 2400 fold”. Also, in assay [1], the “HDAC Inhibition at 72 h” value was determined as 2550 ± 57 RFU. Moreover, the “ROS Production” value with HT29 colon cells [2] (24 h, control 60 ± 3) is 274 RFU and 274 ± 9 RFU; in the assay with HT29 colon cells [2] (48 h, control 63 ± 4), 418 RFU and 418 ± 15 RFU; in the assay on HT29 colon cells [2] (72 h, control 85 ± 6) it was 474 ± 10 RFU. For the same compound, the “MtMP Changes” value in the assay on HT29 colon cells [3] (24 h, control 542 ± 4) stood at 321 ± 11 RFU; in the assay with HT29 colon cells [3] (48 h, control 507 ± 11), 267 ± 8 RFU; in the assay on HT29 colon cells [3] (72 h, control 449 ± 10), 148 ± 7 RFU.
“[Pt^IV(5-Mephen)(SS-DACH)(5B3A)(OH)]^2+ [5-5B3A]”: the SCI in the assay with U87 glioblastoma came out at 0.08; in the assay with H460 lung, 0.63; in the assay on BE2-C neuroblastoma it was 0.06; in the assay on Du145 prostate, 1.90; with A2780 ovarian, 0.45. Besides, the GI50 came out at 240 ± 23 nM in the assay with U87 glioblastoma; 30 ± 3 nM with H460 lung; 340 ± 40 nM in the assay with BE2-C neuroblastoma; 10 ± 2 nM in the assay with Du145 prostate (Du145 prostate); 42 ± 4 nM in the assay with A2780 ovarian. Further, in the assay on Du145 prostate (Du145 prostate), the “fold more potent than carboplatin” value is reported as 1500 fold. For the same compound, the “fold more potent than cisplatin” value in the assay on Du145 prostate (Du145 prostate) was determined as 120 fold. Also, in the assay with Du145 prostate (Du145 prostate), the “fold more potent than oxaliplatin” value is 290 fold. Further, in assay [1], the “HDAC Inhibition at 72 h” value was found to be 2791 ± 72 RFU. The “ROS Production” value in the assay on HT29 colon cells [2] (24 h, control 60 ± 3) was 160 RFU and 160 ± 11 RFU; in the assay with HT29 colon cells [2] (48 h, control 63 ± 4), 230 RFU and 230 ± 9 RFU; in the assay on HT29 colon cells [2] (72 h, control 85 ± 6), 315 RFU and 315 ± 14 RFU. Moreover, the “MtMP Changes” value in the assay on HT29 colon cells [3] (24 h, control 542 ± 4) is listed as 324 ± 9 RFU; in the assay on HT29 colon cells [3] (48 h, control 507 ± 11), 280 ± 12 RFU; in the assay on HT29 colon cells [3] (72 h, control 449 ± 10), 184 ± 4 RFU.
Regarding “[Pt^IV(phen)(SS-DACH)(5B3A)(OH)]^2+ [P-5B3A]”, the SCI with U87 glioblastoma is 0.15; with H460 lung it was 0.65; in the assay on BE2-C neuroblastoma, 0.02; in the assay on Du145 prostate, 1.47; in the assay on A2780 ovarian it was 0.60. The GI50 in the assay on U87 glioblastoma was 1900 ± 150 nM; in the assay with H460 lung, 430 ± 50 nM; in the assay with BE2-C neuroblastoma, 13000 nM; in the assay on Du145 prostate (Du145 prostate) it was 190 ± 23 nM; in the assay on A2780 ovarian, 470 ± 18 nM. Besides, in assay [1], the “HDAC Inhibition at 72 h” value amounted to 3620 ± 35 RFU. In addition, the “ROS Production” value in the assay with HT29 colon cells [2] (24 h, control 60 ± 3) was 156 RFU and 156 ± 16 RFU; in the assay on HT29 colon cells [2] (48 h, control 63 ± 4), 214 RFU and 214 ± 12 RFU; in the assay with HT29 colon cells [2] (72 h, control 85 ± 6), 246 ± 11 RFU. Further, the “MtMP Changes” value worked out at 332 ± 7 RFU with HT29 colon cells [3] (24 h, control 542 ± 4); 317 ± 7 RFU with HT29 colon cells [3] (48 h, control 507 ± 11); 263 ± 5 RFU in the assay with HT29 colon cells [3] (72 h, control 449 ± 10).
